Activity calls are given as the source filed them. The calls are words filed in the database; no cut-off is given here.
Experiments:
[1] = target: T1, Pancreatic lipase-related protein 2 (Cavia porcellus) (UniProt P81139); experiment: Inhibition of recombinant GPLRP2 expressed in Aspergillus oryzae at 2 molar excess after 30 mins in presence of NaTDC
T1 sequence (whole entry): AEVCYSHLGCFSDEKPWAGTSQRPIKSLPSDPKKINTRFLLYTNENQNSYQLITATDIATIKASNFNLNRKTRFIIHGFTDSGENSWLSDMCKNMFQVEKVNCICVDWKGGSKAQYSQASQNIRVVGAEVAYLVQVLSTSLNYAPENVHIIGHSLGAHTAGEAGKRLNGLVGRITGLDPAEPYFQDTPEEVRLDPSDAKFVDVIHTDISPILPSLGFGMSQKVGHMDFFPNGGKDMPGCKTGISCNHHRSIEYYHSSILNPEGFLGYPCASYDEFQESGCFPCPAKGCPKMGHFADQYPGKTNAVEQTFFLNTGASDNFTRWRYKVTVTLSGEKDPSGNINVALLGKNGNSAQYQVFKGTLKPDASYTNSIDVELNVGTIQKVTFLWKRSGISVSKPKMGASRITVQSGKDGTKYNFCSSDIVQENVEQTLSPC

[2] = target: T2, Pancreatic lipase-related protein 2 (Homo sapiens) (UniProt P54317); experiment: Inhibition of recombinant HPLRP2 expressed in Pichia pastoris after 30 mins in presence of NaTDC
T2 sequence (whole entry): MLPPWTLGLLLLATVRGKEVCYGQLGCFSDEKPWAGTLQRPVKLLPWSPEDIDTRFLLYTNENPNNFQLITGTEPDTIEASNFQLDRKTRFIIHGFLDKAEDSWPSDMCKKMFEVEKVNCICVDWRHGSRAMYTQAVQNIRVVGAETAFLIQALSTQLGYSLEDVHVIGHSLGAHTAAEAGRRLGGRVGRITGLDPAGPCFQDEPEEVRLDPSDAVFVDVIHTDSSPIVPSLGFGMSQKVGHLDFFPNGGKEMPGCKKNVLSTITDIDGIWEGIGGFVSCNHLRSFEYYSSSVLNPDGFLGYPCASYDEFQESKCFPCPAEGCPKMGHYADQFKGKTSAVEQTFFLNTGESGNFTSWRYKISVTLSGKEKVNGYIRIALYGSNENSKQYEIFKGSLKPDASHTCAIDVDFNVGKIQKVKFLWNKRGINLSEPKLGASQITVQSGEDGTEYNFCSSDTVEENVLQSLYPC

[3] = target: T3, Pancreatic triacylglycerol lipase (Homo sapiens) (UniProt P16233); experiment: Inhibition of recombinant HPL expressed in Pichia pastoris at 400 molar excess after 30 mins in presence of NaTDC
T3 sequence (whole entry): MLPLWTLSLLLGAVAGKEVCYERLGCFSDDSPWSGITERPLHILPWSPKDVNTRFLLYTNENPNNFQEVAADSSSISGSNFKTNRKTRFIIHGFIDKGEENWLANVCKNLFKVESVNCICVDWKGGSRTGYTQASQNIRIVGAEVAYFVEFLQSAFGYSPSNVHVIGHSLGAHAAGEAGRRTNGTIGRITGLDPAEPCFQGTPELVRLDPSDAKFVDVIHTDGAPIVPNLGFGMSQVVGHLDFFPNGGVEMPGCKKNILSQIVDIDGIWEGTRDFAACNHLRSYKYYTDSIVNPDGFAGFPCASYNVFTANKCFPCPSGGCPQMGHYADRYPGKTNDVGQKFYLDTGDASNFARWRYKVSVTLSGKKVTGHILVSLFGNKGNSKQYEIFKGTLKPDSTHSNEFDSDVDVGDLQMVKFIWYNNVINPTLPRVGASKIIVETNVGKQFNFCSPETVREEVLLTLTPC

[4] = target: T4, Pancreatic triacylglycerol lipase (Sus scrofa) (UniProt P00591); experiment: Inhibition of PPL assessed as half inactivation time at 100 molar excess in presence of NaTDC
T4 sequence (whole entry): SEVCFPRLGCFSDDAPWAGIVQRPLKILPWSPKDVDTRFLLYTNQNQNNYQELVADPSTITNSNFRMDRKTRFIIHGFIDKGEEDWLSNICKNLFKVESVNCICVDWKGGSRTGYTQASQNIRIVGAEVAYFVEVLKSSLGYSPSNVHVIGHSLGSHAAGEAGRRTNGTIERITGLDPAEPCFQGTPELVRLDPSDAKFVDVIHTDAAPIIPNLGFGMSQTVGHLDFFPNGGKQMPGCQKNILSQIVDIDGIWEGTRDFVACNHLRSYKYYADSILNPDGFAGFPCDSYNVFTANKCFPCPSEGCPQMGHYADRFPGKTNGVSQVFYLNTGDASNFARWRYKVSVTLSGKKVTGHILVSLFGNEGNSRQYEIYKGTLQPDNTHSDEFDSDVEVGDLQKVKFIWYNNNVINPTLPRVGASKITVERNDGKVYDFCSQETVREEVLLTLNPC

[5] = target: T1, Pancreatic lipase-related protein 2 (Cavia porcellus); experiment: Inhibition of recombinant GPLRP2 expressed in Aspergillus oryzae at 20 molar excess after 30 mins in presence of NaTDC
[6] = target: T2, Pancreatic lipase-related protein 2 (Homo sapiens); experiment: Inhibition of recombinant HPLRP2 expressed in Pichia pastoris at 20 molar excess after 30 mins in presence of NaTDC
[7] = target: T5, Bile salt-activated lipase (Homo sapiens) (UniProt P19835); experiment: Inhibition of human pancreatic CEH after 30 mins
T5 sequence (whole entry): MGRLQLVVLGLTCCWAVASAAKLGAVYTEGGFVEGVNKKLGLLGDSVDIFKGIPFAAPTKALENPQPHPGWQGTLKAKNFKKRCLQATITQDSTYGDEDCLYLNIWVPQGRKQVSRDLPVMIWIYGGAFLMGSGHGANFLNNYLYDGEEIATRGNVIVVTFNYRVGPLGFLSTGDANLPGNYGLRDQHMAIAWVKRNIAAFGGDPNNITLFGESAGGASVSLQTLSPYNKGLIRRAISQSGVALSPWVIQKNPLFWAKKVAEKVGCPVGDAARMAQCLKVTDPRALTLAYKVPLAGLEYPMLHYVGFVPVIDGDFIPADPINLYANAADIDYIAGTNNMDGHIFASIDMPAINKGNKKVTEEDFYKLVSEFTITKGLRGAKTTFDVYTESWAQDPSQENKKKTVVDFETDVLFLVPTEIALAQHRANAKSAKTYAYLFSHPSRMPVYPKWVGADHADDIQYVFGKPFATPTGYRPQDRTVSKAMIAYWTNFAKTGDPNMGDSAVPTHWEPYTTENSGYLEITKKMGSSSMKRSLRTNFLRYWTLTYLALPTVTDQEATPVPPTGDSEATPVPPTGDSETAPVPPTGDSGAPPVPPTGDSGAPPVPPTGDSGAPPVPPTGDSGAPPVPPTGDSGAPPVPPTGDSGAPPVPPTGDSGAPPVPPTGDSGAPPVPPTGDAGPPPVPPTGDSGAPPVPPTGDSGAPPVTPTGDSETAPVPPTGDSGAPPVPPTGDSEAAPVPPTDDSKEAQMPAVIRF

[8] = target: T4, Pancreatic triacylglycerol lipase (Sus scrofa); experiment: Inhibition of PPL at 400 molar excess after 30 mins in presence of NaTDC
[9] = target: T6, Gastric triacylglycerol lipase (Canis lupus familiaris) (UniProt P80035); experiment: Inhibition of recombinant DGL expressed in transgenic maize assessed as half inactivation time at 20 molar excess in presence of NaTDC
T6 sequence (whole entry): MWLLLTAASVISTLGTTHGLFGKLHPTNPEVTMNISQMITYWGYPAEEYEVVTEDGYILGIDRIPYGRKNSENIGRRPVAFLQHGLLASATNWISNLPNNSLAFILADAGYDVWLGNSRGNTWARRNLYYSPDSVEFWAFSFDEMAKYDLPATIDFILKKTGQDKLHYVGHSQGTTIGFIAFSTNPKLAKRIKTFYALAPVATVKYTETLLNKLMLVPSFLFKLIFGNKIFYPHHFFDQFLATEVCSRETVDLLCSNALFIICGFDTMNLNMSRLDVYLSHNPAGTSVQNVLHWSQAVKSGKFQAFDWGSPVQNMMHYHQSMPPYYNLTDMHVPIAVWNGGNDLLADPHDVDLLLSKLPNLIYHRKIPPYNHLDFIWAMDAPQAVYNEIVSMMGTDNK

[10] = target: T2, Pancreatic lipase-related protein 2 (Homo sapiens); experiment: Inhibition of recombinant HPLRP2 expressed in Pichia pastoris at 2 molar excess after 30 mins in presence of NaTDC
[11] = target: T4, Pancreatic triacylglycerol lipase (Sus scrofa); experiment: Inhibition of PPL after 30 mins in presence of NaTDC
[12] = target: T3, Pancreatic triacylglycerol lipase (Homo sapiens); experiment: Inhibition of recombinant HPL expressed in Pichia pastoris after 30 mins in presence of NaTDC
Sus scrofa = species: Sus scrofa; experiment: Inhibition of porcine Pancrelipase at 400 molar excess after 30 mins
[13] = target: T6, Gastric triacylglycerol lipase (Canis lupus familiaris); experiment: Inhibition of recombinant DGL expressed in transgenic maize at 20 molar excess after 30 mins in presence of NaTDC
[14] = target: T2, Pancreatic lipase-related protein 2 (Homo sapiens); experiment: Inhibition of recombinant HPLRP2 expressed in Pichia pastoris assessed as half inactivation time at 5 molar excess in presence of NaTDC
[15] = target: T5, Bile salt-activated lipase (Homo sapiens); experiment: Inhibition of human pancreatic CEH assessed as residual activity at 40 molar excess after 30 mins by mass spectrophotometric analysis
[16] = target: T6, Gastric triacylglycerol lipase (Canis lupus familiaris); experiment: Inhibition of recombinant DGL expressed in transgenic maize assessed as hydrolysis of trybutyrin emulsion at 10 to 40 molar excess after 30 mins in presence of NaTDC
[17] = target: T3, Pancreatic triacylglycerol lipase (Homo sapiens); experiment: Inhibition of recombinant HPL expressed in Pichia pastoris at 100 molar excess after 30 mins in presence of NaTDC
[18] = target: T1, Pancreatic lipase-related protein 2 (Cavia porcellus); experiment: Inhibition of recombinant GPLRP2 expressed in Aspergillus oryzae assessed as half inactivation time at 2 molar excess in presence of NaTDC
[19] = target: T5, Bile salt-activated lipase (Homo sapiens); experiment: Inhibition of human pancreatic CEH at 2 molar excess after 30 mins
[20] = target: T6, Gastric triacylglycerol lipase (Canis lupus familiaris); experiment: Inhibition of recombinant DGL expressed in transgenic maize assessed as hydrolysis of trybutyrin emulsion at 10 to 40 molar excess after 30 mins in absence of NaTDC
[21] = target: T5, Bile salt-activated lipase (Homo sapiens); experiment: Inhibition of human pancreatic CEH at 20 molar excess after 30 mins
[22] = target: T1, Pancreatic lipase-related protein 2 (Cavia porcellus); experiment: Inhibition of recombinant GPLRP2 expressed in Aspergillus oryzae after 30 mins in presence of NaTDC
[23] = target: T2, Pancreatic lipase-related protein 2 (Homo sapiens); experiment: Inhibition of recombinant HPLRP2 expressed in Pichia pastoris assessed as residual activity at 40 molar excess after 30 mins by mass spectrophotometric analysis in presence of NaTDC
[24] = target: T3, Pancreatic triacylglycerol lipase (Homo sapiens); experiment: Inhibition of recombinant HPL expressed in Pichia pastoris assessed as half inactivation time at 100 molar excess in presence of NaTDC
[25] = target: T6, Gastric triacylglycerol lipase (Canis lupus familiaris); experiment: Inhibition of recombinant DGL expressed in transgenic maize assessed as residual activity at 40 molar excess after 30 mins by mass spectrophotometric analysis in presence of NaTDC
[26] = target: T5, Bile salt-activated lipase (Homo sapiens); experiment: Inhibition of human pancreatic CEH assessed as half inactivation time at 4 molar excess
[27] = target: T4, Pancreatic triacylglycerol lipase (Sus scrofa); experiment: Inhibition of PPL at 100 molar excess after 30 mins in presence of NaTDC
[28] = target: T1, Pancreatic lipase-related protein 2 (Cavia porcellus); experiment: Inhibition of recombinant GPLRP2 expressed in Aspergillus oryzae assessed as residual activity at 40 molar excess after 30 mins by mass spectrophotometric analysis in presence of NaTDC
[29] = target: T6, Gastric triacylglycerol lipase (Canis lupus familiaris); experiment: Inhibition of recombinant DGL expressed in transgenic maize at 2 molar excess after 30 mins in presence of NaTDC
[30] = target: T6, Gastric triacylglycerol lipase (Canis lupus familiaris); experiment: Inhibition of recombinant DGL expressed in transgenic maize after 30 mins in presence of NaTDC

Structure (SMILES)	inhibition [1] [%]	XI50 [2] [molar excess]	inhibition [3]	T1/2 [4] [min]	inhibition [5] [%]	inhibition [6] [%]	XI50 [7] [molar excess]	inhibition [8] [%]	T1/2 [9] [min]	inhibition [10] [%]	XI50 [11] [molar excess]	inhibition (Sus scrofa) [%]	inhibition [13] [%]	T1/2 [14] [min]	inhibition [17]	T1/2 [18] [min]	inhibition [19] [%]	inhibition [21] [%]	T1/2 [26] [min]	inhibition [27] [%]	further results
COc1nn(-c2cccc(Oc3ccccc3)c2)c(=O)o1	80.1	0.62	42.7%	1.69	90.4	81.2	1.48	87.7	1.88	63.7	26.5	89.7	81.9	0.78	26.3%	0.46	54.5	84.7	0.9	85.1	XI50 [12]: > 400 molar excess; inhibition [15]: Active; inhibition [16]: Active; inhibition [20]: 65%; XI50 [22]: 0.77 molar excess; inhibition [23]: Active; T1/2 [24]: > 120 min; inhibition [25]: Active; inhibition [28]: Active; inhibition [29]: 10.9%; XI50 [30]: 8.33 molar excess
CCCCCCCCCCC[C@@H](C[C@@H]1OC(=O)[C@H]1CCCCCC)OC(=O)[C@H](CC(C)C)NC=O	82.7	0.77	85%	1.66	87.3	86.3	0.78	90.9	0.59	83.6	2.76	93.1	56.3	0.55	77.2%	0.4	80.1	83.6	0.52	85.5	inhibition [16]: 60%; T1/2 [24]: 1.64 min; inhibition [29]: 51.5%
COc1nn(-c2ccccc2)c(=O)o1	77.6	2.27	inactive	> 60	86	92.7	0.77	35.8	> 60	49.9	> 400	34.1	6.6	14.6	inactive	9.97	71.6	81.3	1	10.7	XI50 [12]: inactive; XI50 [22]: 0.74 molar excess; inhibition [24]: inactive; inhibition [29]: 1.4%; XI50 [30]: > 40 molar excess
COc1nn(-c2ccc(Oc3ccccc3)cc2)c(=O)o1	13.3	1.04	20%	1.84	23.6	88.8	0.93	87.1	9.31	66	57.6	90.6	92.7	2.06	inactive	> 60	77.1	78.6	1.43	72.9	XI50 [12]: > 400 molar excess; inhibition [16]: Active; inhibition [20]: 65%; XI50 [22]: > 40 molar excess; T1/2 [24]: > 120 min; inhibition [29]: 12.4%; XI50 [30]: 7.12 molar excess
